For test [1], the system named is Staphylococcus aureus. The test is described as follows: Antimicrobial activity against Staphylococcus aureus 2548. It is filed as functional.
Test [2] concerns Staphylococcus aureus. Description: Antimicrobial activity against Staphylococcus aureus 2549 small colony variants. It is filed as functional.
In test [3] the test system is Staphylococcus aureus. The test is described as follows: Antimicrobial activity against Staphylococcus aureus 2547 small colony variants. The test is classed as functional.
Test [4] has as its system Staphylococcus aureus. The test is described as follows: Antimicrobial activity against extracellular Staphylococcus aureus 2549 small colony variants after 4 hrs in MH-II broth. It is filed as functional, organism-based.
The test system of test [5] is Staphylococcus aureus. Description: Antimicrobial activity against extracellular Staphylococcus aureus 2548 after 4 hrs in MH-II broth. It is filed as functional, organism-based.
The subject of test [6] is Staphylococcus aureus. The test is described as follows: Antimicrobial activity against extracellular Staphylococcus aureus 2546 after 4 hrs in MH-II broth. It is filed as functional, organism-based.
Test [7] has as its system Staphylococcus aureus. The test is described as follows: Antimicrobial activity against Staphylococcus aureus 2546. The test is classed as functional.
Test [8] deals with Staphylococcus aureus. The test is described as follows: Antimicrobial activity against intracellular Staphylococcus aureus 2548 infected in human monocyte-derived macrophages after 48 hrs. It is filed as functional, organism-based.

Converted amounts (≈) assume the structure as drawn. The source made the active and inactive calls. No cut-off for these calls is given here.

`CCCCCCCCCC(=O)N[C@@H](Cc1c[nH]c2ccccc12)C(=O)N[C@H](CC(N)=O)C(=O)N[C@@H](CC(=O)O)C(=O)N[C@@H]1C(=O)NCC(=O)N[C@@H](CCCN)C(=O)N[C@@H](CC(=O)O)C(=O)N[C@H](C)C(=O)N[C@@H](CC(=O)O)C(=O)NCC(=O)N[C@H](CO)C(=O)N[C@@H]([C@H](C)CC(=O)O)C(=O)N[C@@H](CC(=O)c2ccccc2N)C(=O)O[C@@H]1C`: the MIC in the test on Staphylococcus aureus [1] turned out to be 1 µg/mL (≈ 0.617 µM); with Staphylococcus aureus [2] it was 0.5 µg/mL (≈ 0.309 µM); in the test on Staphylococcus aureus [3] it was 1 µg/mL (≈ 0.617 µM); against Staphylococcus aureus [7] it was 1 µg/mL (≈ 0.617 µM). In addition, the outcome in the test on Staphylococcus aureus [4], in the test on Staphylococcus aureus [5], in the test on Staphylococcus aureus [6] and with Staphylococcus aureus [8] was Active.

As to `CCC[C@@H]1C[C@@H](C(=O)N[C@@H]([C@H]2O[C@H](SC)[C@H](O)[C@@H](O)[C@H]2O)[C@H](C)Cl)N(C)C1` [CLINDAMYCIN], the MIC against Staphylococcus aureus [1] came to 0.06 µg/mL (≈ 0.141 µM); against Staphylococcus aureus [2] it was 0.25 µg/mL (≈ 0.588 µM); in the test on Staphylococcus aureus [3], 0.25 µg/mL (≈ 0.588 µM); in the test with Staphylococcus aureus [7], 0.125 µg/mL (≈ 0.294 µM).

On to `Cc1onc(-c2ccccc2)c1C(=O)N[C@@H]1C(=O)N2[C@@H]1SC(C)(C)[C@@H]2C(=O)O` [OXACILLIN], for which the MIC with Staphylococcus aureus [1] is 0.25 µg/mL (≈ 0.623 µM); in the test with Staphylococcus aureus [2] it was 0.5 µg/mL (≈ 1.25 µM); against Staphylococcus aureus [3], 0.5 µg/mL (≈ 1.25 µM); against Staphylococcus aureus [7], 0.25 µg/mL (≈ 0.623 µM).

Consider `CO[C@H]1/C=C/O[C@@]2(C)Oc3c(C)c(O)c4c(O)c(c(/C=N/N5CCN(C)CC5)c(O)c4c3C2=O)NC(=O)/C(C)=C\C=C\[C@H](C)[C@H](O)[C@@H](C)[C@@H](O)[C@@H](C)[C@H](OC(C)=O)[C@@H]1C` [RIFAMPIN], for which the MIC was 0.125 µg/mL (≈ 0.152 µM) against Staphylococcus aureus [1], 0.06 µg/mL (≈ 0.0729 µM) against Staphylococcus aureus [2], 0.06 µg/mL (≈ 0.0729 µM) against Staphylococcus aureus [3] and 0.125 µg/mL (≈ 0.152 µM) in the test on Staphylococcus aureus [7]. Also, in the test on Staphylococcus aureus [8], the result was Active.

Consider GENTAMICIN, for which the MIC against Staphylococcus aureus [1] worked out at 8 µg/mL; in the test with Staphylococcus aureus [2] it was 16 µg/mL; against Staphylococcus aureus [3] it was 4 µg/mL; with Staphylococcus aureus [7], 2 µg/mL. Besides, the outcome in the test on Staphylococcus aureus [4], in the test on Staphylococcus aureus [5], in the test with Staphylococcus aureus [6] and in the test on Staphylococcus aureus [8] was Active.

These data come from ChEMBL document CHEMBL1255343, “Activities of daptomycin and comparative antimicrobials, singly and in combination, against extracellular and intracellular Staphylococcus aureus and its stable small-colony variant in human monocyte-derived macrophages and in broth” (2008).
